Key:
[1] = tested on: Jurkat cells; details: cited from earlier work
[2] = tested on: Jurkat cells; details: cited from earlier work; remark: listed apart in the source
[3] = tested on: RBL-2H3 cells; assay: Fluorescence-based assay of store-operated calcium entry in RBL-2H3 cells; type: cell-based, rat; details: Rattus norvegicus, RBL-2H3; thapsigargin; 50% inhibition of Upslope; read-out: RBL-2H3 (IC50, μmol)
Protocol: B. Fluorescence-Based Assay of Store-Operated Calcium Entry in RBL-2H3 Cells.
RBL-2H3 cells are obtained from ATCC and maintained in complete medium with 10% FBS at 37° C./6% CO2.
The day prior to performing the assay, RBL-2H3 cells are plated in 50 μL of complete medium in a 384 well plate. Cells are grown at 37° C./6% CO2 overnight and grow to 50-60% confluence by the next day. On the assay day, 1.5 μM Fluo-4-AM dye (Invitrogen) in complete medium is added and incubated for 1 hour at RT. Cells are washed twice in Ca^2+-free HBSS buffer and 35 μL Ca^2+-free HBSS buffer is added to each well. 10 μL of a test compound prepared in a Ca^2+-free HBSS solution at 4.5× of the desired concentration is added to a well and incubated for 5 minutes at RT. 10 μL of thapsigargin prepared in a Ca^2+-free HBSS solution at 5.5× of the desired concentration (5.5 uM) is added to each well and incubated for an additional 25 minutes. The initial baseline fluorescence signal is measured with a FLIPR^384 (Molecular Devices) plate reader. 5 μL of 12× calcium in HBSS (12 mM) is added and changes in cellular fluorescence are measured with the FLIPR^384 plate reader. In each well, the change in the fluorescent signal as a function of time due to calcium entry into the cell is determined by calculating the difference between the fluorescent signal measured 7 seconds after calcium addition and the initial baseline fluorescence signal at time zero (t=0). This parameter is designated Upslope. The IC50 value is calculated as the concentration at which 50% of the Upslope is inhibited.

[4] = biological target: T1, Orai1/STIM1 (Homo sapiens, UniProt Q96D31); assay: Fluorescence-based assay of store-operated calcium entry in Orai1/STIM1 stable cells; type: cell-based; design: key to Orai1/STIM1 (IC50, μmol): A < 0.6 μmol; 0.6 μmol ≦ B ≦ 1.2 μmol; C > 1.2 μmol; — = no fit; details: HEK-293 cells stably expressing human STIM1 and Orai1, 50% inhibition of Peak-Basal fluorescence signal; for IC50: read-out: Orai1/STIM1 (IC50, μmol)
T1 construct: expressed in transfected cells
Protocol: A. Fluorescence-Based Assay of Store-Operated Calcium Entry in Orai1/STIM1 Stable Cells.
Cells stably expressing recombinant human STIM1 and Orai1 are generated by transfecting a human Orai1 expression plasmid (pcDNA3.1-Orai1-cmyc) into HEK-293 cells stably overexpressing human STIM1 (Roos et al. 2005 JCB 169(3): 435-445). Colonies of cells stably expressing both STIM1 and Orai1 proteins are selected and then subcloned by limiting dilution. Cells were cultured at 37° C./6% CO2 in complete medium with 10% FBS and appropriate selection markers.
The day prior to performing the assay Orai1/STIM1 stable cells are plated in 50 μL of complete medium at 90-95% confluence in a 384 well plate. Cells are grown at 37° C./6% CO2 overnight. On the day of the assay, 1.5 μM fluo-4-AM (Invitrogen) in complete medium is added to the cells, which are then incubated for 1 hour at RT. Cells are washed once in Ca^2+-free HBSS (Hank's buffered saline solution) and 35 μl of Ca^2+-free HBSS is added to each well. Test compounds are added to wells in a 10 μL Ca^2+-free HBSS solution, prepared at 4.5× the desired final concentration, and incubated for 30 minutes at RT. The initial baseline fluorescence signal is then measured with a FLIPR^384 (Molecular Devices) plate reader. Calcium entry is initiated by adding 5 μl of 10× CaCl2 (10 mM) in HBSS, and changes in cellular fluorescence are measured with the FLIPR^384 plate reader. In each well, the magnitude of the fluorescence signal as a result of calcium entry into the cell is determined by calculating the difference between the peak fluorescence signal measured after calcium addition and the initial baseline fluorescence signal (designated Peak-Basal). IC50 values are typically calculated as the concentration that inhibited 50% of the Peak-Basal signal.

[5] = biological target: STIM1 and Orai1 (Homo sapiens, UniProt Q96D31); details: HEK293 cells co-expressing STIM1 and Orai1; cited from earlier work
Sequence of STIM1 and Orai1 (Q96D31 whole entry, species assumed): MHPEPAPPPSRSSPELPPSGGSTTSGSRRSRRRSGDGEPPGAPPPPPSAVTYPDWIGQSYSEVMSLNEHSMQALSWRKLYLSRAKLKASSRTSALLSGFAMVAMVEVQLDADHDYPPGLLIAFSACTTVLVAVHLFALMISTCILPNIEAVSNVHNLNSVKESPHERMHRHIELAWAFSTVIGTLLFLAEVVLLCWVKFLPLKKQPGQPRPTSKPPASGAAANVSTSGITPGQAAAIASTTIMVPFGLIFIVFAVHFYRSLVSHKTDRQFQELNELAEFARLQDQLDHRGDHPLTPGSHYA

T1 sequence (Q96D31 whole entry): as the sequence (Q96D31 whole entry, species assumed) above

## Cc1nnsc1C(=O)Nc1ccc(-n2nc(C(F)(F)F)cc2C(F)(F)F)cc1 [BTP-2]
[1]
  proliferation: inhibits
[2]
  SOCE: inhibits

## Cc1cnc(-n2cc(-c3ccc(NC(=O)c4c(F)ccc(F)c4F)nc3)c(C)n2)s1 [Example 64, 2,3,6-trifluoro-N-(5-(3-methyl-1-(5-methylthiazol-2-yl)-1H-pyrazol-4-yl)pyridin-2-yl)benzamide]
[3]
  IC50: < 600 nM
[4]
  IC50: < 600 nM

## Cc1nn(-c2nccs2)cc1-c1ccc(NCc2c(F)cccc2F)cc1F [Example 75, N-(2,6-difluorobenzyl)-3-fluoro-4-(3-methyl-1-(thiazol-2-yl)-1H-pyrazol-4-yl)aniline]
[3]
  IC50: < 600 nM
[4]
  IC50: < 600 nM

## Cc1nn(-c2nccs2)cc1-c1ccc(NC(=O)c2cc(F)nc(F)c2)cc1F [Example 16, 2,6-difluoro-N-(3-fluoro-4-(3-methyl-1-(thiazol-2-yl)-1H-pyrazol-4-yl)phenyl)isonicotinamide]
[3]
  IC50: < 600 nM
[4]
  IC50: < 600 nM

## CC(C)(C)c1nn(-c2nccs2)cc1-c1ccc(NC(=O)c2c(F)cccc2F)nc1 [Example 54, N-(5-(3-tert-butyl-1-(thiazol-2-yl)-1H-pyrazol-4-yl)pyridin-2-yl)-2,6-difluorobenzamide]
[3]
  IC50: < 600 nM
[4]
  Orai1/STIM1 (IC50, μmol): —

## Cc1nn(-c2nccs2)cc1-c1ccc(NC(=O)c2c(F)cccc2F)cc1F [Example 10, 2,6-difluoro-N-(3-fluoro-4-(3-methyl-1-(thiazol-2-yl)-1H-pyrazol-4-yl)phenyl)benzamide]
[3]
  IC50: < 600 nM
[4]
  IC50: < 600 nM

## CCc1nn(-c2nccs2)cc1-c1ccc(NC(=O)c2c(F)cccc2F)cc1F [Example 31, N-(4-(3-ethyl-1-(thiazol-2-yl)-1H-pyrazol-4-yl)-3-fluorophenyl)-2,6-difluorobenzamide]
[3]
  IC50: < 600 nM
[4]
  IC50: < 600 nM

## Cc1nn(-c2cc(F)ccc2F)cc1-c1ccc(NC(=O)c2c(F)ccc(F)c2F)nc1 [Example 56, N-(5-(1-(2,5-difluorophenyl)-3-methyl-1H-pyrazol-4-yl)pyridin-2-yl)-2,3,6-trifluorobenzamide]
[3]
  IC50: > 1200 nM
[4]
  IC50: < 600 nM

## O=C(Nc1cnc(-c2cn(-c3nccs3)nc2C2CC2)cn1)c1c(F)cc(F)cc1F [Example 49, N-(5-(3-cyclopropyl-1-(thiazol-2-yl)-1H-pyrazol-4-yl)pyrazin-2-yl)-2,4,6-trifluorobenzamide]
[3]
  IC50: < 600 nM
[4]
  IC50: 600 to 1200 nM

## CCc1nn(-c2nccs2)cc1-c1ccc(NC(=O)c2ccccc2F)cc1 [Example 7, N-(4-(3-ethyl-1-(thiazol-2-yl)-1H-pyrazol-4-yl)phenyl)-2-fluorobenzamide]
[3]
  IC50: < 600 nM
[4]
  IC50: < 600 nM

## Cc1nn(-c2nccs2)cc1-c1ccc(NC(=O)c2ccc(F)c(F)c2F)cc1F [Example 15, 2,3,4-trifluoro-N-(3-fluoro-4-(3-methyl-1-(thiazol-2-yl)-1H-pyrazol-4-yl)phenyl)benzamide]
[3]
  IC50: < 600 nM
[4]
  IC50: < 600 nM

## Cc1nn(-c2nccs2)cc1-c1ccc(NC(=O)c2c(F)cccc2F)cc1 [Example 1, 2,6-difluoro-N-(4-(3-methyl-1-(thiazol-2-yl)-1H-pyrazol-4-yl)phenyl)benzamide]
[3]
  IC50: < 600 nM
[4]
  IC50: < 600 nM

## Cc1ccc(F)c(C(=O)Nc2cnc(-c3cn(-c4nccs4)nc3C)cn2)c1F [Example 30, 2,6-difluoro-3-methyl-N-(5-(3-methyl-1-(thiazol-2-yl)-1H-pyrazol-4-yl)pyrazin-2-yl)benzamide]
[3]
  IC50: < 600 nM
[4]
  IC50: 600 to 1200 nM

## Cc1nn(-c2nccs2)cc1-c1ccc(NC(=O)c2c(F)ccc(F)c2F)cc1F [Example 13, 2,3,6-trifluoro-N-(3-fluoro-4-(3-methyl-1-(thiazol-2-yl)-1H-pyrazol-4-yl)phenyl)benzamide]
[3]
  IC50: < 600 nM
[4]
  IC50: < 600 nM

## Cc1nn(-c2nccs2)cc1-c1ccc(NC(=O)c2ccccc2OC(F)F)cc1F [Example 17, 2-(difluoromethoxy)-N-(3-fluoro-4-(3-methyl-1-(thiazol-2-yl)-1H-pyrazol-4-yl)phenyl)benzamide]
[3]
  IC50: < 600 nM
[4]
  IC50: 600 to 1200 nM

## CCc1nn(-c2nccs2)cc1-c1ccc(NC(=O)c2ccccc2F)s1 [Example 74, N-(5-(3-ethyl-1-(thiazol-2-yl)-1H-pyrazol-4-yl)thiophen-2-yl)-2-fluorobenzamide]
[3]
  IC50: < 600 nM
[4]
  IC50: < 600 nM

## Cc1nn(-c2nccs2)cc1-c1ccc(NC(=O)c2c(F)cc(F)cc2F)nc1 [Example 21, 2,4,6-trifluoro-N-(5-(3-methyl-1-(thiazol-2-yl)-1H-pyrazol-4-yl)pyridin-2-yl)benzamide]
[3]
  IC50: < 600 nM
[4]
  IC50: < 600 nM

## NCCOB(c1ccccc1)c1ccccc1 [2-aminoethoxydiphenylborate]
[5]
  store-operated Ca2+ entry: completely blocked

## Cc1nn(-c2cc(F)ccc2F)cc1-c1ccc(NC(=O)c2c(F)cccc2F)nc1 [Example 55, N-(5-(1-(2,5-difluorophenyl)-3-methyl-1H-pyrazol-4-yl)pyridin-2-yl)-2,6-difluorobenzamide]
[3]
  IC50: < 600 nM
[4]
  IC50: < 600 nM

## O=C(Nc1ccc(-c2cn(-c3nccs3)nc2C2CC2)cn1)c1c(F)cccc1F [Example 44, N-(5-(3-cyclopropyl-1-(thiazol-2-yl)-1H-pyrazol-4-yl)pyridin-2-yl)-2,6-difluorobenzamide]
[3]
  IC50: < 600 nM
[4]
  IC50: < 600 nM

## CCc1nn(-c2nccs2)cc1-c1ccc(NC(=O)c2c(F)cccc2F)s1 [Example 73, N-(5-(3-ethyl-1-(thiazol-2-yl)-1H-pyrazol-4-yl)thiophen-2-yl)-2,6-difluorobenzamide]
[3]
  IC50: < 600 nM
[4]
  IC50: 600 to 1200 nM

## Cc1nn(-c2ccccc2F)cc1-c1ccc(NC(=O)c2ccccc2F)nc1 [Example 58, 2-fluoro-N-(5-(1-(2-fluorophenyl)-3-methyl-1H-pyrazol-4-yl)pyridin-2-yl)benzamide]
[3]
  IC50: > 1200 nM
[4]
  IC50: 600 to 1200 nM

From patent publication US9611263B2, “Compounds that modulate intracellular calcium” (CALCIMEDICA, INC., priority 2013, dated 2017)
